Source: US5068190A, “N-acetylhexosamine-dehydrogenase, process for producing same, method for the quantitative analysis of N-acetylglucosamine or N-acetylgalactosamine using same and kit for use in the quantitative analysis” (Noda Institute for Scientific Research, priority 1988, dated 1991)

Each compound was assayed on N-acetylhexosamine-dehydrogenase (N-AHDH) (assay: Action and substrate specificity of the enzyme). Conditions: in the presence of NAD+.
Type: biochemical, Pseudomonas sp. No. 53
Method: As shown in the following reaction scheme, this enzyme oxidizes N-acetylglucosamine or N-acetylgalactosamine to N-acetylglucosaminolactoneor N-acetylgalactosaminolactone in the presence of NAD^+ and, at the same time, reduces the NAD^+ to NADH. [drawing 1]
(§1) To 1.8 ml of 0.1 M glycine-sodium hydroxide buffer (pH 9.5) is added 0.1 ml of 60 mM […] solution. After keeping the mixture at 37° C. for 10 minutes, 10 microliters of enzyme solution is added, and subsequently 0.1 ml of 0.3M N-acetylglucosamine solution is mixed to start the reaction. The reaction mixture is immediately transferred into an absorbance measurement cell (1 cm path) kept at 37° C., and absorbance is measured at intervals of one minute at a wavelength of 340 nm over a period of 5 minutes or, if desired, over a longer period of time. A quantity of enzyme capable of forming one micromole of NADH per one minute is taken as "one unit".

| Action of the enzyme upon the sugar (substrate specificity) | Structure (SMILES) |
| --- | --- |
| oxidizes | CC(=O)N[C@H]1C(O)O[C@H](CO)[C@H](O)[C@@H]1O (stereo partly shown) [N-acetylgalactosamine] |
| oxidizes | CC(=O)N[C@H]1C(O)O[C@H](CO)[C@@H](O)[C@@H]1O (stereo partly shown) [N-acetylglucosamine] |
| only a slight action | CC(=O)N[C@@H]1C(O)O[C@H](CO)[C@@H](O)[C@@H]1O (stereo partly shown) [N-acetylmannosamine] |

| Structure (SMILES) | Action of the enzyme upon the sugar (substrate specificity) |
| --- | --- |
| CC(=O)N[C@H]1[C@H](O[C@H]2[C@H](O)[C@@H](NC(C)=O)C(O)O[C@@H]2CO)O[C@H](CO)[C@@H](O)[C@@H]1O (stereo partly shown) [N,N'-diacetylchitobiose] | no action at all or hardly exercises an action |

Same assay, conditions: in the presence of NAD+; listed as acetylchitobiose

| Action of the enzyme upon the sugar (substrate specificity) | Structure (SMILES) |
| --- | --- |
| does not act | CC(=O)N[C@H]1[C@H](O[C@H]2[C@H](O)[C@@H](NC(C)=O)C(O)O[C@@H]2CO)O[C@H](CO)[C@@H](O)[C@@H]1O (stereo partly shown) [N,N'-diacetylchitobiose] |

Each compound was assayed on N-acetylhexosamine-dehydrogenase (N-AHDH) (assay: Influence of inhibitor on enzyme activity). Conditions: not given.
Type: biochemical, Pseudomonas sp. No. 53
Method: In the table presented above, enzyme activity was measured in a solution containing 2 mM of metallic ion or inhibitor. There is known no substance particularly contributing to activation and stabilization.
as §1

| Structure (SMILES) | Residual activity |
| --- | --- |
| Oc1cccc2cccnc12 [8-Hydroxyquinoline] | 110 |

Same assay, conditions: solution containing 2 mM of metallic ion or inhibitor

| Structure (SMILES) | Residual activity |
| --- | --- |
| [Ca+2].[Cl-].[Cl-] [CaCl2] | 95% |
| O=S(=O)([O-])[O-].[Cd+2] [CdSO4] | 92% |
| O=S(=O)([O-])[O-].[Cu+2] [CuSO4] | 94% |
| O=C(O)CN(CCN(CC(=O)O)CC(=O)O)CC(=O)O [EDTA] | 101% |
| [Cl][Hg][Cl] [HgCl2] | 35% |
| NC(=O)CI [Iodoacetamide] | 104% |
| O=S(=O)([O-])[O-].[Mn+2] [MnSO4] | 96% |
| [N-]=[N+]=[N-].[Na+] [NaN3] | 89% |
| O=C(O)c1cc[c]([Hg][Cl])cc1 [PCMB] | 97% |
| CCCCCCCCCCCCOS(=O)(=O)O [SDS] | 62% |
| O=S(=O)([O-])[O-].[Zn+2] [ZnSO4] | 95% |
| c1cnc2c(c1)ccc1cccnc12 [o-Phenanthroline] | 104% |
| c1ccc(-c2ccccn2)nc1 [α, α'-Dipyridyl] | 107% |
